Values of other authors in patent US8329663B2, “Compositions and methods for the treatment of chronic infections” (priority 2008, dated 2012).
Like-named read-outs stand apart in the source and are kept apart here.

What was measured:
[1] = in water
[2] = first (or only) pKa value listed
[3] = second pKa value listed (polyprotic)
[4] = third pKa value listed (polyprotic)

Structure (SMILES): CCOC(=O)c1ncn2c1CN(C)C(=O)c1cc(F)ccc1-2 [Flumazenil]
- pKa (in H2O) [1, 2]: 1.7

Structure (SMILES): NNC(=O)c1ccncc1 [Isoniazid]
- pKa (in H2O) [1, 2]: 1.82

Structure (SMILES): O=C(O)c1cccc(C(=O)O)n1 [Dipicolinic Acid]
- pKa (in H2O) [1, 3]: 4.97

Structure (SMILES): OCCOCCN1CCN(C(c2ccccc2)c2ccc(Cl)cc2)CC1 (stereo not shown) [Hydroxyzine]
- pKa (in H2O) [1, 2]: 1.8

Structure (SMILES): O=C(O)c1ccccc1Nc1cccc(C(F)(F)F)c1 [Flufenamic acid]
- pKa (in H2O) [1, 2]: 3.9

Structure (SMILES): CN(C)CCc1c[nH]c2ccccc12 [Dimethyltryptamine]
- pKa (in H2O) [1, 2]: 2

Structure (SMILES): CCCN(CCC)S(=O)(=O)c1ccc(C(=O)O)cc1 [Probenicid]
- pKa (in H2O) [1, 2]: 3.4

Structure (SMILES): C[C@@H]1CN(c2c(F)c(N)c3c(=O)c(C(=O)O)cn(C4CC4)c3c2F)C[C@H](C)N1 [sparfloxacin]
- in vitro susceptibility of C. pneumoniae (C. pneumoniae): susceptible in vitro

Structure (SMILES): CC(C)CN(C[C@@H](O)[C@H](Cc1ccccc1)NC(=O)O[C@H]1CCOC1)S(=O)(=O)c1ccc(N)cc1 [Amprenavir]
- pKa (in H2O) [1, 2]: 1.76
- pKa (in H2O) [1, 3]: 11.54

Structure (SMILES): CC[C@H]1OC(=O)[C@H](C)[C@@H](O[C@H]2C[C@@](C)(OC)[C@@H](O)[C@H](C)O2)[C@H](C)[C@@H](O[C@@H]2O[C@H](C)C[C@H](N(C)C)[C@H]2O)[C@](C)(O)C[C@@H](C)C(=O)[C@H](C)[C@@H](O)[C@]1(C)O [erythromycin]
- in vitro susceptibility of C. pneumoniae (C. pneumoniae): susceptible in vitro

Structure (SMILES): Cc1nc2n(c(=O)c1CCN1CCC(c3noc4cc(F)ccc34)CC1)CCCC2O (stereo not shown) [9-Hydroxy-risperidone]
- pKa (in H2O) [1, 2]: 2.77
- pKa (in H2O) [1, 3]: 7.86

Structure (SMILES): CC(=O)OCC1=C(C(=O)O)N2C(=O)[C@@H](NC(=O)CSc3ccncc3)[C@H]2SC1 [Cephapirin]
- pKa (in H2O) [1, 2]: 2.15
- pKa (in H2O) [1, 3]: 5.44

Structure (SMILES): NCC1(CC(=O)O)CCCCC1 [Neurontin]
- pKa (in H2O) [1, 2]: 3.68
- pKa (in H2O) [1, 3]: 10.70

Structure (SMILES): CO[C@H]1/C=C/O[C@@]2(C)Oc3c(C)c(O)c4c(O)c(c(/C=N/N5CCN(C)CC5)c(O)c4c3C2=O)NC(=O)/C(C)=C\C=C\[C@H](C)[C@H](O)[C@@H](C)[C@@H](O)[C@@H](C)[C@H](OC(C)=O)[C@@H]1C [Rifampin]
- pKa (in H2O) [1, 2]: 1.7
- pKa (in H2O) [1, 3]: 7.9

Structure (SMILES): C[C@H]1c2cccc(O)c2C(=O)C2=C(O)[C@]3(O)C(=O)C(C(N)=O)=C(O)[C@@H](N(C)C)[C@@H]3[C@@H](O)[C@@H]21 [Doxycycline]
- pKa (in H2O) [1, 2]: 3.5
- pKa (in H2O) [1, 3]: 7.7
- pKa (in H2O) [1, 4]: 9.5

Structure (SMILES): CCS(=O)(=O)CCn1c([N+](=O)[O-])cnc1C [Tinidazole]
- pKa (in H2O) [1, 2]: 2.34

Structure (SMILES): COc1ccc2[nH]c([S+]([O-])Cc3ncc(C)c(OC)c3C)nc2c1 (stereo not shown) [Omeprazole]
- pKa (in H2O) [1, 3]: 8.8

Structure (SMILES): C[C@H](N)C(=O)N[C@@H](C)C(=O)N[C@H]1[C@@H]2CN(c3nc4c(cc3F)c(=O)c(C(=O)O)cn4-c3ccc(F)cc3F)C[C@@H]21 [Alatrofloxacin]
- pKa (in H2O) [1, 2]: 0.64
- pKa (in H2O) [1, 3]: 8.12

Structure (SMILES): CC(C)[C@H](N)C(=O)OCCOCn1cnc2c(=O)[nH]c(N)nc21 [Valacyclovir]
- pKa (in H2O) [1, 2]: 1.90
- pKa (in H2O) [1, 3]: 7.47
- pKa (in H2O) [1, 4]: 9.43

Structure (SMILES): C[N+](C)(C)C[C@H](O)CC(=O)[O-] [L-carnitine]
- pKa (in H2O) [1, 2]: 3.8

Structure (SMILES): CC1(C)S[C@@H]2[C@H](NC(=O)[C@H](N)c3ccc(O)cc3)C(=O)N2[C@H]1C(=O)O [Amoxicillin]
- pKa (in H2O) [1, 2]: 2.8
- pKa (in H2O) [1, 3]: 7.2

Structure (SMILES): Cc1ccccc1-n1c(C)nc2ccccc2c1=O [Methaqualone]
- pKa (in H2O) [1, 2]: 2.5

Structure (SMILES): CN(C)CCc1c[nH]c2cccc(OP(=O)(O)O)c12 [Psilocybin]
- pKa (in H2O) [1, 2]: 0.2

Structure (SMILES): O=P(O)(O)C(O)(Cc1cccnc1)P(=O)(O)O [Risedronic acid]
- pKa (in H2O) [1, 2]: 0.32
- pKa (in H2O) [1, 3]: 5.09

Structure (SMILES): CC[C@H]1OC(=O)[C@H](C)[C@@H](O[C@H]2C[C@@](C)(OC)[C@@H](O)[C@H](C)O2)[C@H](C)[C@@H](O[C@@H]2O[C@H](C)C[C@H](N(C)C)[C@H]2O)[C@](C)(OC)C[C@@H](C)C(=O)[C@H](C)[C@@H](O)[C@]1(C)O [clarithromycin]
- in vitro susceptibility of C. pneumoniae (C. pneumoniae): susceptible in vitro
